Target: 5-hydroxytryptamine receptor 2B (Homo sapiens, UniProt P41595)
Test: Agonist activity at human 5-HT2B receptor expressed in human Flp-In-293 cells assessed as induction of calcium flux incubated for 1 hr by Fluo-4 direct dye based FLIPR assay

Sequence of 5-hydroxytryptamine receptor 2B (P41595 whole entry): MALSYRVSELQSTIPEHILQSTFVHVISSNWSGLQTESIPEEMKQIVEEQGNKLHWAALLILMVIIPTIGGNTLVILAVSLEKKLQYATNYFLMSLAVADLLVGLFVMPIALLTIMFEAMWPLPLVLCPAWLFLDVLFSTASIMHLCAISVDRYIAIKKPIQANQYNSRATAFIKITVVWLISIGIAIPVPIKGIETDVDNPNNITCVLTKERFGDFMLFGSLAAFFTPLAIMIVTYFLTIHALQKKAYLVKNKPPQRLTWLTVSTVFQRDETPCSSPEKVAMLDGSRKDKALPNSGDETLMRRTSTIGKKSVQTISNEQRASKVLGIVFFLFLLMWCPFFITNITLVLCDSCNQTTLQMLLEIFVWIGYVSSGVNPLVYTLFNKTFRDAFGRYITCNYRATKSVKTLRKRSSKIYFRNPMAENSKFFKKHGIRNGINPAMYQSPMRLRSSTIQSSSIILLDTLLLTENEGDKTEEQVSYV

EC50: 339 nM
SMILES: NC[C@H]1C[C@@H]1c1c(OCC2CC2)ccc2occc12
